Measured values taken from ChEMBL document CHEMBL1149625, “Rational design of 6-(2,4-diaminopyrimidinyl)-1,4-benzoxazin-3-ones as small molecule renin inhibitors” (Bioorg Med Chem, 2007).
Converted amounts (≈) assume the structure as drawn.

Key:
[1] = in vivo; details: rat, iv, 1 mg/kg
[2] = in vivo; details: rat, po, 10 mg/kg
[3] = in vivo; details: rat, po, 10 mg/kg; remark: listed apart in the source
[4] = physchem; details: aqueous, pH 6.5, Solubility
[5] = Volume of distribution at steady state in rat at 1 mg/kg, iv or 5 mg/kg, po; format: ADME, organism-based; details: in vivo, read-out: Vdss
[6] = Volume of distribution at steady state in rat at […], iv or […], po; format: ADME, organism-based; details: in vivo, read-out: Vdss
[7] = Cmax in rat at […], iv or […], po; format: ADME, organism-based; details: in vivo
[8] = Bioavailability in rat at […], po; format: ADME, organism-based; details: in vivo
[9] = Cmax in rat at 1 mg/kg, iv or 5 mg/kg, po; format: ADME, organism-based; details: in vivo
[10] = Bioavailability in rat at 5 mg/kg, po; format: ADME, organism-based; details: in vivo
[11] = Bioavailability in dog at 5 mg/kg, po; format: ADME, organism-based, Canis lupus familiaris; details: in vivo
[12] = buffer, pH 6.5

## CCc1nc(N)nc(N)c1-c1ccc2c(c1)N(CCNC(=O)OC)C(=O)C(C)(c1cc(F)cc(F)c1)O2 (stereo not given)
[1]
  Vd: 3.5 L/kg
[2]
  Cmax: 280 ng/mL
[3]
  bioavailability: 34%

## CCc1nc(N)nc(N)c1-c1ccc2c(c1)N(CCNC(C)=O)C(=O)[C@](C)(c1ccccc1)O2
[4]
  solubility: 119 µg/mL (≈ 258 µM)

## CCc1nc(N)nc(N)c1-c1ccc2c(c1)N(CCCOC)C(=O)C(C)(c1cc(F)cc(F)c1)O2 (stereo in doubt; 25)
[4]
  solubility: 87 µg/mL (≈ 180 µM)

## CCc1nc(N)nc(N)c1-c1ccc2c(c1)N(CCNC(=O)CO)C(=O)C(C)(c1cc(F)cc(F)c1)O2 (stereo not given)
[5]
  Vd: 2.9 L/kg
[4]
  solubility: 59 µg/mL (≈ 115 µM)

## CCOCCCN1C(=O)C(C)(c2cc(F)cc(F)c2)Oc2ccc(-c3c(N)nc(N)nc3CC)cc21 (stereo not given)
[6]
  Vd: 2 L/kg
[7]
  Cmax: < 5 ng/mL
[8]
  bioavailability: 0%
[4]
  solubility: 59 µg/mL (≈ 119 µM)

## CCc1nc(N)nc(N)c1-c1ccc2c(c1)N(CCNC(C)=O)C(=O)[C@@](C)(c1ccccc1)O2
[4]
  solubility: 40 µg/mL (≈ 86.9 µM)

## CCc1nc(N)nc(N)c1-c1ccc2c(c1)N(CCCOC(F)(F)F)C(=O)C(C)(c1cc(F)cc(F)c1)O2 (stereo not given)
[1]
  Vd: 6.3 L/kg
[2]
  Cmax: 200 ng/mL
[3]
  bioavailability: 28%
[4]
  solubility: 7.8 µg/mL (≈ 14.5 µM)

## CCc1nc(N)nc(N)c1-c1ccc2c(c1)N(CCCCO)C(=O)C(C)(c1cc(F)cc(F)c1)O2 (stereo not given)
[1]
  Vd: 2.3 L/kg
[2]
  Cmax: 186 ng/mL
[3]
  bioavailability: 7%
[4]
  solubility: 59 µg/mL (≈ 122 µM)

## CCc1nc(N)nc(N)c1-c1ccc2c(c1)N(CCCO)C(=O)C(C)(c1cc(F)cc(F)c1)O2 (stereo not given)
[5]
  Vd: 3.1 L/kg
[9]
  Cmax: 180 ng/mL
[10]
  bioavailability: 44%
[4]
  solubility: 28 µg/mL (≈ 59.6 µM)

## CCc1nc(N)nc(N)c1-c1ccc2c(c1)N(CCNC(C)=O)C(=O)C(C)(C(F)(F)F)O2 (stereo not given)
[4]
  solubility: 200 µg/mL (≈ 442 µM)

## CCNC(=O)CN1C(=O)C(C)(c2cc(F)cc(F)c2)Oc2ccc(-c3c(N)nc(N)nc3CC)cc21 (stereo not given)
[6]
  Vd: 3.1 L/kg
[7]
  Cmax: 60 ng/mL
[8]
  bioavailability: 14%
[4]
  solubility: 89 µg/mL (≈ 179 µM)

## CCc1nc(N)nc(N)c1-c1ccc2c(c1)N(CCNC(C)=O)C(=O)C(C)(c1cccc(C(F)(F)F)c1)O2 (racemic)
[4]
  solubility: 12 µg/mL (≈ 22.7 µM)

## CCc1nc(N)nc(N)c1-c1ccc2c(c1)N(CCCC(F)(F)F)C(=O)[C@](C)(c1cc(F)cc(F)c1)O2
[11]
  bioavailability: 19%
[1]
  Vd: 5.7 L/kg
[2]
  Cmax: 380 ng/mL
[3]
  bioavailability: 74%

## CCc1nc(N)nc(N)c1-c1ccc2c(c1)N(CCCOC)C(=O)C(C)(C)O2
[4]
  solubility: 34 µg/mL (≈ 88.2 µM)

## CCc1nc(N)nc(N)c1-c1ccc2c(c1)N(CCCOC)C(=O)C(CC)(CC)O2
[4]
  solubility: 16 µg/mL (≈ 38.7 µM)

## CCc1nc(N)nc(N)c1-c1ccc2c(c1)N(CCNC(C)=O)C(=O)C1(CC1)O2
[4]
  solubility: 24 µg/mL (≈ 60.5 µM)

## CCc1nc(N)nc(N)c1-c1ccc2c(c1)N(CCCC#N)C(=O)C(C)(c1cc(F)cc(F)c1)O2 (stereo not given)
[1]
  Vd: 1.9 L/kg
[2]
  Cmax: 237 ng/mL
[3]
  bioavailability: 12%
[4]
  solubility: 3.5 µg/mL (≈ 7.31 µM)

## CCc1nc(N)nc(N)c1-c1ccc2c(c1)N(CCC(=O)NC)C(=O)C(C)(c1cc(F)cc(F)c1)O2 (stereo not given)
[5]
  Vd: 2.1 L/kg
[4]
  solubility: 133 µg/mL (≈ 268 µM)

## CCc1nc(N)nc(N)c1-c1ccc2c(c1)N(CCCOC)C(=O)C(CC)(c1cc(F)cc(F)c1)O2 (racemic)
[4]
  solubility: 2.6 µg/mL (≈ 5.23 µM)

## CCc1nc(N)nc(N)c1-c1ccc2c(c1)N(CCNC(C)=O)C(=O)C(C)(c1ccc(Cl)cc1)O2 (racemic)
[4]
  solubility: 12 µg/mL (≈ 24.2 µM)

## CCc1nc(N)nc(N)c1-c1ccc2c(c1)N(CCCC(F)(F)F)C(=O)C(C)(c1cc(F)cc(F)c1)O2 (racemic)
[1]
  Vd: 5.1 L/kg
[2]
  Cmax: 160 ng/mL
[3]
  bioavailability: 12%
[4]
  solubility: 5.2 µg/mL (≈ 9.97 µM)

## CCc1nc(N)nc(N)c1-c1ccc2c(c1)N(CCNC(C)=O)C(=O)C(C)(c1cc(F)ccc1F)O2 (racemic)
[4]
  solubility: 2.3 µg/mL (≈ 4.63 µM)

## CCc1nc(N)nc(N)c1-c1ccc2c(c1)N(CCNC(C)=O)C(=O)C(C)(c1cccc(Cl)c1)O2 (racemic)
[4]
  solubility: 133 µg/mL (≈ 269 µM)

## CCc1nc(N)nc(N)c1-c1ccc2c(c1)N(CCCOC)C(=O)C(C)(c1ccc(F)c(F)c1)O2 (racemic)
[4]
  solubility: 13 µg/mL (≈ 26.9 µM)

## CCc1nc(N)nc(N)c1-c1ccc2c(c1)N(CCO)C(=O)C(C)(c1cc(F)cc(F)c1)O2 (stereo not given)
[1]
  Vd: 3.3 L/kg
[4]
  solubility: 89 µg/mL (≈ 195 µM)

## CCc1nc(N)nc(N)c1-c1ccc2c(c1)N(CCNC(C)=O)C(=O)C(C)(c1cc(F)cc(F)c1)O2 (racemic)
[12]
  solubility: 133 µg/mL (≈ 268 µM)

## CCc1nc(N)nc(N)c1-c1ccc2c(c1)N(CCCOC)C(=O)C(C)(CC)O2 (stereo not given)
[4]
  solubility: 54 µg/mL (≈ 135 µM)

## CCc1nc(N)nc(N)c1-c1ccc2c(c1)N(CCNS(C)(=O)=O)C(=O)C(C)(c1cc(F)cc(F)c1)O2 (stereo not given)
[4]
  solubility: 200 µg/mL (≈ 376 µM)

## CCc1nc(N)nc(N)c1-c1ccc2c(c1)N(CCCOC)C(=O)C(C)(c1cc(F)cc(F)c1)O2 (racemic)
[5]
  Vd: 4.5 L/kg
[9]
  Cmax: 23 ng/mL
[10]
  bioavailability: 0.4%
[12]
  solubility: 87 µg/mL (≈ 180 µM)

## CCc1nc(N)nc(N)c1-c1ccc2c(c1)N(CCNC(C)=O)C(=O)C(C)(c1cc(F)cc(F)c1)O2 (stereo in doubt; 26)
[5]
  Vd: 2.1 L/kg
[9]
  Cmax: 220 ng/mL
[10]
  bioavailability: 8%
[4]
  solubility: 95 µg/mL (≈ 191 µM)
